PubChem BioAssay AID1963970 (Molecular Pharmacology Branch, DTP, NCI, 2024)
Where “and” joins values, the source holds several entries; their conditions need not be identical. Identical values can stand only once. One block for each compound: values may come before it.

Test system: 931267-113-T-J1-PDC multicell spheroid viability
Assay: Anticancer human tumor 931267-113-T-J1-PDC patient-derived colon adenocarcinoma cell line growth inhibition [PI3K]
Details: for viability, T/C: stronger effect = lower value
How it was run: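 Spheroid viability read-out. Co-cultures contained the tumor line plus HUVEC and human MSCs. Each agent was paired with a PI3K inhibitor (inavolisib, alpelisib, duvelisib, copanlisib) across half-log dilutions starting at clinical Cmax, or at 10 microM when Cmax was unknown.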

[1] = curve of first compound, second compound 0.00316 µM
[2] = curve of first compound, second compound 0.01 µM
[3] = curve of first compound, second compound 0.0316 µM
[4] = curve of first compound, second compound 0.1 µM
[5] = curve of first compound, second compound 0.316 µM
[6] = curve of first compound, second compound 1 µM
[7] = second compound 0.00316 µM, first compound 0.0316 µM
[8] = second compound 0.00316 µM, first compound 0.1 µM
[9] = second compound 0.01 µM, first compound 0.0316 µM
[10] = second compound 0.01 µM, first compound 0.1 µM
[11] = second compound 0.0316 µM, first compound 0.000316 µM
[12] = second compound 0.0316 µM, first compound 0.001 µM
[13] = second compound 0.0316 µM, first compound 0.00316 µM
[14] = second compound 0.0316 µM, first compound 0.01 µM
[15] = second compound 0.0316 µM, first compound 0.0316 µM
[16] = second compound 0.0316 µM, first compound 0.1 µM
[17] = second compound 0.1 µM, first compound 0.000316 µM
[18] = second compound 0.1 µM, first compound 0.001 µM
[19] = second compound 0.1 µM, first compound 0.00316 µM
[20] = second compound 0.1 µM, first compound 0.01 µM
[21] = second compound 0.1 µM, first compound 0.0316 µM
[22] = second compound 0.1 µM, first compound 0.1 µM
[23] = second compound 0.316 µM, first compound 0.000316 µM
[24] = second compound 0.316 µM, first compound 0.001 µM
[25] = second compound 0.316 µM, first compound 0.00316 µM
[26] = second compound 0.316 µM, first compound 0.01 µM
[27] = second compound 0.316 µM, first compound 0.0316 µM
[28] = second compound 0.316 µM, first compound 0.1 µM
[29] = second compound 1 µM, first compound 0.000316 µM
[30] = second compound 1 µM, first compound 0.001 µM
[31] = second compound 1 µM, first compound 0.00316 µM
[32] = second compound 1 µM, first compound 0.01 µM
[33] = second compound 1 µM, first compound 0.0316 µM
[34] = second compound 1 µM, first compound 0.1 µM
[35] = curve of first compound, second compound 3.16 µM
[36] = curve of first compound, second compound 10 µM
[37] = second compound 3.16 µM, first compound 0.0316 µM
[38] = second compound 3.16 µM, first compound 0.1 µM
[39] = second compound 10 µM, first compound 0.0316 µM
[40] = second compound 10 µM, first compound 0.1 µM
[41] = second compound 0.0316 µM, first compound 0.316 µM
[42] = second compound 0.0316 µM, first compound 1 µM
[43] = second compound 0.0316 µM, first compound 3.16 µM
[44] = second compound 0.0316 µM, first compound 10 µM
[45] = second compound 0.1 µM, first compound 0.316 µM
[46] = second compound 0.1 µM, first compound 1 µM
[47] = second compound 0.1 µM, first compound 3.16 µM
[48] = second compound 0.1 µM, first compound 10 µM
[49] = second compound 0.316 µM, first compound 0.316 µM
[50] = second compound 0.316 µM, first compound 1 µM
[51] = second compound 0.316 µM, first compound 3.16 µM
[52] = second compound 0.316 µM, first compound 10 µM
[53] = second compound 1 µM, first compound 0.316 µM
[54] = second compound 1 µM, first compound 1 µM
[55] = second compound 1 µM, first compound 3.16 µM
[56] = second compound 1 µM, first compound 10 µM
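Note: viability read 7 days after compound addition.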

Compound: CC(C)n1nc(-c2ccc3oc(N)nc3c2)c2c(N)ncnc21 + CC(Nc1ccc2c(c1)OCCn1cc(N3C(=O)OCC3C(F)F)nc1-2)C(N)=O
- IC50 [1]: 80.1 nM
- IC50 [2]: > 100 nM
- IC50 [3]: 66.6 nM
- IC50 [4]: 60.7 nM
- IC50 [5]: 48.7 nM
- IC50 [6]: 37.7 nM
- viability, T/C (second compound 0.00316 µM, first compound 0.000316 µM): 94.6%
- viability, T/C (second compound 0.00316 µM, first compound 0.001 µM): 98%
- viability, T/C (second compound 0.00316 µM, first compound 0.00316 µM): 83%
- viability, T/C (second compound 0.00316 µM, first compound 0.01 µM): 91.5%
- viability, T/C [7]: 80.2%
- viability, T/C [8]: 42.5%
- viability, T/C (second compound 0.01 µM, first compound 0.000316 µM): 104%
- viability, T/C (second compound 0.01 µM, first compound 0.001 µM): 101%
- viability, T/C (second compound 0.01 µM, first compound 0.00316 µM): 86%
- viability, T/C (second compound 0.01 µM, first compound 0.01 µM): 81.1%
- viability, T/C [9]: 68%
- viability, T/C [10]: 52.2%
- viability, T/C [11]: 97.7%
- viability, T/C [12]: 104%
- viability, T/C [13]: 101%
- viability, T/C [14]: 90%
- viability, T/C [15]: 71%
- viability, T/C [16]: 38.8%
- viability, T/C [17]: 89.4%
- viability, T/C [18]: 83.8%
- viability, T/C [19]: 93%
- viability, T/C [20]: 77.7%
- viability, T/C [21]: 64.1%
- viability, T/C [22]: 39.6%
- viability, T/C [23]: 82.7%
- viability, T/C [24]: 82.7%
- viability, T/C [25]: 69%
- viability, T/C [26]: 70.8%
- viability, T/C [27]: 59.2%
- viability, T/C [28]: 36.7%
- viability, T/C [29]: 72.5%
- viability, T/C [30]: 69.3%
- viability, T/C [31]: 70.6%
- viability, T/C [32]: 59%
- viability, T/C [33]: 55.9%
- viability, T/C [34]: 31.8%

Compound: Cn1ncnc1[C@H]1c2n[nH]c(=O)c3cc(F)cc(c23)N[C@@H]1c1ccc(F)cc1 + Cc1nc(NC(=O)N2CCCC2C(N)=O)sc1-c1ccnc(C(C)(C)C(F)(F)F)c1
- IC50 [3]: > 100 nM
- IC50 [4]: > 100 nM
- IC50 [5]: > 100 nM
- IC50 [6]: > 100 nM
- IC50 [35]: > 100 nM
- IC50 [36]: > 100 nM
- viability, T/C [11]: 107%
- viability, T/C [12]: 98.2%
- viability, T/C [13]: 84.2%
- viability, T/C [14]: 94.1%
- viability, T/C [15]: 91%
- viability, T/C [16]: 97.5%
- viability, T/C [17]: 113%
- viability, T/C [18]: 94.8%
- viability, T/C [19]: 107%
- viability, T/C [20]: 98.8%
- viability, T/C [21]: 90.2%
- viability, T/C [22]: 75.1%
- viability, T/C [23]: 93.9%
- viability, T/C [24]: 89.5%
- viability, T/C [25]: 89.5%
- viability, T/C [26]: 95%
- viability, T/C [27]: 82%
- viability, T/C [28]: 89.8%
- viability, T/C [29]: 74.5%
- viability, T/C [30]: 73.7%
- viability, T/C [31]: 86.3%
- viability, T/C [32]: 78.5%
- viability, T/C [33]: 79.7%
- viability, T/C [34]: 72.1%
- viability, T/C (second compound 3.16 µM, first compound 0.000316 µM): 78.9%
- viability, T/C (second compound 3.16 µM, first compound 0.001 µM): 68.6%
- viability, T/C (second compound 3.16 µM, first compound 0.00316 µM): 61.7%
- viability, T/C (second compound 3.16 µM, first compound 0.01 µM): 63.8%
- viability, T/C [37]: 70.7%
- viability, T/C [38]: 64.6%
- viability, T/C (second compound 10 µM, first compound 0.000316 µM): 57.7%
- viability, T/C (second compound 10 µM, first compound 0.001 µM): 55.2%
- viability, T/C (second compound 10 µM, first compound 0.00316 µM): 54.2%
- viability, T/C (second compound 10 µM, first compound 0.01 µM): 51.8%
- viability, T/C [39]: 59.2%
- viability, T/C [40]: 52.8%

Compound: C=CC(=O)N1CCN(c2nc(=O)n(-c3c(C)ccnc3C(C)C)c3nc(-c4c(O)cccc4F)c(F)cc23)C(C)C1 (centres undefined)
- viability, T/C (compound 0.0316 µM): 119% and 104% (2×) and 102%
- viability, T/C (compound 0.316 µM): 106% [middle of 4 runs]
- viability, T/C (compound 1 µM): 109% [middle of 4 runs]
- viability, T/C (compound 3.16 µM): 108% and 110% (2×) and 107%
- viability, T/C (compound 10 µM): 104% and 105% (2×) and 99.7%
- IC50 (curve of compound): > 10000 nM

Now from value to compound, other results behind:

- IC50 [3]: > 10000 nM
- IC50 [4]: > 10000 nM
- IC50 [5]: > 10000 nM
- IC50 [6]: > 10000 nM
- IC50 [35]: > 10000 nM
- IC50 [36]: 3660 nM
Compound: CNC(=O)c1ccc(N2C(=S)N(c3ccc(C#N)c(C(F)(F)F)c3)C(=O)C2(C)C)cc1F + Cc1nc(NC(=O)N2CCCC2C(N)=O)sc1-c1ccnc(C(C)(C)C(F)(F)F)c1
- viability, T/C [15]: 112%
- viability, T/C [16]: 85%
- viability, T/C [41]: 95.4%
- viability, T/C [42]: 105%
- viability, T/C [43]: 101%
- viability, T/C [44]: 93.5%
- viability, T/C [21]: 94%
- viability, T/C [22]: 105%
- viability, T/C [45]: 98.7%
- viability, T/C [46]: 105%
- viability, T/C [47]: 99.5%
- viability, T/C [48]: 98.5%
- viability, T/C [27]: 92.9%
- viability, T/C [28]: 75.9%
- viability, T/C [49]: 87.9%
- viability, T/C [50]: 80.5%
- viability, T/C [51]: 89.3%
- viability, T/C [52]: 76.5%
- viability, T/C [33]: 89.6%
- viability, T/C [34]: 66.4%
- viability, T/C [53]: 73.9%
- viability, T/C [54]: 85.1%
- viability, T/C [55]: 83.5%
- viability, T/C [56]: 76.2%
- viability, T/C [37]: 71.2%
- viability, T/C [38]: 64.5%
- viability, T/C (second compound 3.16 µM, first compound 0.316 µM): 73.8%
- viability, T/C (second compound 3.16 µM, first compound 1 µM): 62.5%
- viability, T/C (second compound 3.16 µM, first compound 3.16 µM): 77.2%
- viability, T/C (second compound 3.16 µM, first compound 10 µM): 67.5%
- viability, T/C [39]: 59.7%
- viability, T/C [40]: 54.2%
- viability, T/C (second compound 10 µM, first compound 0.316 µM): 56.2%
- viability, T/C (second compound 10 µM, first compound 1 µM): 53.3%
- viability, T/C (second compound 10 µM, first compound 3.16 µM): 56.4%
- viability, T/C (second compound 10 µM, first compound 10 µM): 42.2%

- IC50 [1]: > 10000 nM
- IC50 [2]: > 10000 nM
- IC50 [3]: > 10000 nM
- IC50 [4]: > 10000 nM
- IC50 [5]: 1560 nM
- IC50 [6]: < 31.6 nM
Compound: CNC(=O)c1ccc(N2C(=S)N(c3ccc(C#N)c(C(F)(F)F)c3)C(=O)C2(C)C)cc1F + COc1c(OCCCN2CCOCC2)ccc2c3n(c(=NC(=O)c4cnc(N)nc4)nc12)CCN3
- viability, T/C [7]: 109%
- viability, T/C [8]: 107%
- viability, T/C (second compound 0.00316 µM, first compound 0.316 µM): 99.3%
- viability, T/C (second compound 0.00316 µM, first compound 1 µM): 101%
- viability, T/C (second compound 0.00316 µM, first compound 3.16 µM): 104%
- viability, T/C (second compound 0.00316 µM, first compound 10 µM): 104%
- viability, T/C [9]: 105%
- viability, T/C [10]: 93.5%
- viability, T/C (second compound 0.01 µM, first compound 0.316 µM): 102%
- viability, T/C (second compound 0.01 µM, first compound 1 µM): 92%
- viability, T/C (second compound 0.01 µM, first compound 3.16 µM): 100%
- viability, T/C (second compound 0.01 µM, first compound 10 µM): 94.2%
- viability, T/C [15]: 85.2%
- viability, T/C [16]: 80.7%
- viability, T/C [41]: 85.7%
- viability, T/C [42]: 86.8%
- viability, T/C [43]: 93.2%
- viability, T/C [44]: 74.4%
- viability, T/C [21]: 70.8%
- viability, T/C [22]: 68.5%
- viability, T/C [45]: 75.7%
- viability, T/C [46]: 68.5%
- viability, T/C [47]: 69.1%
- viability, T/C [48]: 57.8%
- viability, T/C [27]: 51%
- viability, T/C [28]: 55.9%
- viability, T/C [49]: 53.9%
- viability, T/C [50]: 52%
- viability, T/C [51]: 46.4%
- viability, T/C [52]: 40.8%
- viability, T/C [33]: 36.4%
- viability, T/C [34]: 38.4%
- viability, T/C [53]: 39.3%
- viability, T/C [54]: 34.2%
- viability, T/C [55]: 36.1%
- viability, T/C [56]: 30.1%
